# Earlier results in PMC2970513 (Chemical biology & drug design, 2009).
# Tested on: μ receptor
# Details: compared with the N-methylated cyclic peptides of this paper
substance,measurement,value
H-Tyr-D-Ala(NMe)-Phe-Sar-NH2,"μ receptor binding affinity, fold lower than those of the N-methylated cyclic peptides described here",30-80 fold
